{"source": "patent US20260103529A1", "about": "“Amino Acid Sequences Directed Against the Melanocortin 4 Receptor and Polypeptides Comprising the Same for the Treatment of MC4R-Related Diseases and Disorders” (Confo Therapeutics N.V., priority 2022, published 2026)", "format_in_all_cases": "cell-based", "key": {"[1]": {"system": "highly pigmented normal human epidermal melanocytes (NHEM-HP)", "test": "In vitro pigmentation assay, melanin synthesis, 2D NHEM highly pigmented", "conditions": "10 days; for melanin synthesis compared to the non-stimulated control, reference compounds: 1 mM L-tyrosine, 100 μM IBMX or 10 μM NDP-MSH", "protocol": "(§1) Highly and moderately pigmented melanocytes were seeded in 24-well plates and cultured in culture medium for 24 hours. The medium was then replaced by culture medium containing or not (control) the test compounds or the reference compounds (L-tyrosine at 1 mM, IBMX at 100 and 200 μM and NDP-MSH at 10 μM). The cells were then incubated for 10 days with treatment renewal at day 3 and day 7. All experimental conditions were performed in n=3. At the end of the incubation time, the culture supernatants were removed, and melanin was extracted by cell lysis using a 0.5 N NaOH solution. The optical density (OD) of each experimental point was measured at 405 nm and melanin quantity was determined according to melanin standard curve (standard curve ranging from 0.39 to 100 μg/ml). The results were expressed in μg/ml of melanin. […] NHEM-HP response to L-tyrosine and NDP-MSH was stronger than in NHEM-MP while IBMX induced a stronger response in the NHEM-MP."}, "[2]": {"system": "moderately pigmented normal human epidermal melanocytes (NHEM-MP)", "test": "In vitro pigmentation assay, melanin synthesis, 2D NHEM moderately pigmented", "conditions": "10 days; for melanin synthesis compared to the non-stimulated control, reference compounds: 1 mM L-tyrosine, 100 μM IBMX or 10 μM NDP-MSH", "protocol": "as §1"}, "human wild type MC5R": {"target": "T1, human wild type MC5R (Homo sapiens, UniProt P33032)", "T1 construct": "expressed in transfected cells; host or cells: HEK293 / HEK 293T, pcDNA3.1(+)", "T1 sequence (P33032 whole entry)": "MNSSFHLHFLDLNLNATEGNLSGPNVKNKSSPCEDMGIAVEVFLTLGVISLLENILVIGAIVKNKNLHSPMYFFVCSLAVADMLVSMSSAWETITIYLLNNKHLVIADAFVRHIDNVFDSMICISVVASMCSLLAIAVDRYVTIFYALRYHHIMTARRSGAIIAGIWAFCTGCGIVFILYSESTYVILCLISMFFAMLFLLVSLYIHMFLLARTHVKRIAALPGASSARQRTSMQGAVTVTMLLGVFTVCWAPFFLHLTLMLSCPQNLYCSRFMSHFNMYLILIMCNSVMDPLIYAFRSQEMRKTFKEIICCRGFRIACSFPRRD", "test": "cAMP GloSensor assay, MC5R", "conditions": "HEK293 cells transiently transfected with human MC5R; read-out: average signaling potency (EC50), cAMP GloSensor, MC5R"}, "[3]": {"system": "melanized reconstituted human epidermis (RHE/MEL/001)", "test": "In vitro pigmentation assay, 3D reconstituted human epidermis, dermoscopy", "protocol": "The study was carried out on melanized human epidermis (RHE/MEL/001; batch CB0521-3) in vitro reconstituted with NHEKs (Normal human epidermal keratinocytes, Lonza 00192906) isolated from foreskin of 3 neonatal Caucasian donors and NHEM-DP (Normal Human Epidermal Melanocytes-Darkly pigmented) isolated form one donor (phototype IV-V). The tissues were cultured at the air-liquid interface in Epilife medium (Fisher Scientific, MEP1500CA) containing specific supplements (with among others Human Keratinocytes Growth Factors, Fisher Scientific S0015 or SO01K) and antibiotics (Gentamycin, Fisher Scientific, 15710049). They were maintained in a humid atmosphere at 37° C. with 5% CO2.\nRHE/MEL/001 were reconstituted and cultivated at the air-liquid interface during 14 days in Epilife medium supplemented with specific growth supplements (as described in paragraph 1) in a humid atmosphere at 37° C. with CO2 5%.\nIBMX (Sigma; 15879) at 100 µM was used as tanning reference compound to validate the experiment. A DMSO control (corresponding to the solvent used to solubilize IBMX) at 0.02% (corresponding to the final concentration in DMSO found in the culture medium for the condition treated with IBMX) was planned as well. Four replicates were planned per condition (n=4).\nAt the end of the 10 days treatments (at day 14), macroscopic high-resolution pictures of tissues (n=4) were taken. This was performed using the C-Cube device (Dermoscope type tool; Pixience, France) coupled to C-Cube clinical 3 software, which uses a proprietary method of colour calibration, and provides razor-sharp images of high quality and precision. The following endpoints were calculated, each one taking into account 3 values from the mode “L* a* b*” with L* reflecting the luminance/brightness (value from 0 to 100 with high values for clear skins), a* to gives an idea about the redness of the skin (value from −60 to 60 on the red/green axis) and b* to gives an idea about the yellowness of the skin (value from −60 to 60 on the blue/yellow axis): • ITA (Individual Typology Angle) characterizing the phototype, compared to a standard scale, with ITA>55° for very clear skins and ITA<−30° for black skins. • PI (Pigmentation Index) whose value is directly proportional to the skin pigmentation, with PI from 140 for clear skins to 200 for dark skins. • Colorimetric difference (score or ΔE) allows to quantify colour variation between a test condition and a reference. […]\nThe two test items, hydro-soluble, were evaluated in parallel of one reference compound known to be a pigmentation inducer, namely IBMX. Their capacity to stimulate the production of melanin was evaluated by visual quantification of melanin on macroscopic high resolution pictures obtained by dermoscopy. […]"}, "[4]": {"conditions": "10 μM in culture medium, 10 days, dermoscopy"}}, "data": [{"compound": "CC(C)Cn1c(=O)n(C)c(=O)c2[nH]cnc21", "note": "[IBMX]", "values": [{"measurement": "melanin synthesis compared to the non-stimulated control, reference compounds", "setting": "[1]", "result": "induced a stimulation of melanin synthesis"}, {"measurement": "melanin synthesis compared to the non-stimulated control, reference compounds", "setting": "[2]", "result": "induced a stimulation of melanin synthesis"}]}, {"compound": "CC(=O)N[C@@H](CCCNC(=N)N)C(=O)N[C@H]1CSSC[C@@H](C(N)=O)NC(=O)[C@H](Cc2c[nH]c3ccccc23)NC(=O)[C@H](CCCNC(=N)N)NC(=O)[C@@H](Cc2ccccc2)NC(=O)[C@H](Cc2c[nH]cn2)NC(=O)[C@@H](C)NC1=O", "note": "[setmelanotide, reference compound]", "values": [{"measurement": "EC50", "setting": "human wild type MC5R", "result": "0.451 ± 0.143", "unit": "µM"}]}, {"compound": "Setmelanotide acetate [reference compound]", "values": [{"measurement": "melanin synthesis", "setting": "[1]; 10 μM", "result": "130 % of the control"}, {"measurement": "Individual typology angle (ITA)", "setting": "[3]; [4]", "result": "significantly modulated"}, {"measurement": "pigmentation index (PI)", "setting": "[3]; [4]", "result": "significantly modulated"}, {"measurement": "visual colorimetric difference (score, ΔE)", "setting": "[3]; [4]", "result": "significantly modulated"}, {"measurement": "effect on epidermis pigmentation (conclusion of dermoscopy analysis)", "setting": "[3]; 10 μM, human epidermis in culture", "result": "has a tanning effect"}, {"measurement": "modulation of melanin synthesis", "setting": "[2]", "result": "did not modulate"}]}, {"compound": "NDP-MSH", "values": [{"measurement": "melanin synthesis compared to the non-stimulated control, reference compounds", "setting": "[1]", "result": "induced a stimulation of melanin synthesis"}, {"measurement": "melanin synthesis compared to the non-stimulated control, reference compounds", "setting": "[2]", "result": "induced a stimulation of melanin synthesis"}]}, {"compound": "N[C@@H](Cc1ccc(O)cc1)C(=O)O", "note": "[L-tyrosine]", "values": [{"measurement": "melanin synthesis compared to the non-stimulated control, reference compounds", "setting": "[1]", "result": "induced a stimulation of melanin synthesis"}, {"measurement": "melanin synthesis compared to the non-stimulated control, reference compounds", "setting": "[2]", "result": "induced a stimulation of melanin synthesis"}]}]}
